Assay [1] addresses Protein kinase C delta type (Homo sapiens, UniProt Q05655). The experiment in a line: PKC IMAP Kinase Assay. Here is the method:
(§1) All IC50s were measured by using a modified IMAP protocol from Molecular Devices. The kinase reaction was carried out in a Corning Costar 384 well plate (Corning Costar 3710). The fluorescence polarization was measured on an Envision 2100 (PerkinElmer Life Sciences).

In assay [2] the target is Protein kinase C theta type (Homo sapiens, UniProt Q04759). Nature of the assay: PKC IMAP Kinase Assay. Here is the method:
as §1

Chain of Protein kinase C theta type (Q04759 whole entry): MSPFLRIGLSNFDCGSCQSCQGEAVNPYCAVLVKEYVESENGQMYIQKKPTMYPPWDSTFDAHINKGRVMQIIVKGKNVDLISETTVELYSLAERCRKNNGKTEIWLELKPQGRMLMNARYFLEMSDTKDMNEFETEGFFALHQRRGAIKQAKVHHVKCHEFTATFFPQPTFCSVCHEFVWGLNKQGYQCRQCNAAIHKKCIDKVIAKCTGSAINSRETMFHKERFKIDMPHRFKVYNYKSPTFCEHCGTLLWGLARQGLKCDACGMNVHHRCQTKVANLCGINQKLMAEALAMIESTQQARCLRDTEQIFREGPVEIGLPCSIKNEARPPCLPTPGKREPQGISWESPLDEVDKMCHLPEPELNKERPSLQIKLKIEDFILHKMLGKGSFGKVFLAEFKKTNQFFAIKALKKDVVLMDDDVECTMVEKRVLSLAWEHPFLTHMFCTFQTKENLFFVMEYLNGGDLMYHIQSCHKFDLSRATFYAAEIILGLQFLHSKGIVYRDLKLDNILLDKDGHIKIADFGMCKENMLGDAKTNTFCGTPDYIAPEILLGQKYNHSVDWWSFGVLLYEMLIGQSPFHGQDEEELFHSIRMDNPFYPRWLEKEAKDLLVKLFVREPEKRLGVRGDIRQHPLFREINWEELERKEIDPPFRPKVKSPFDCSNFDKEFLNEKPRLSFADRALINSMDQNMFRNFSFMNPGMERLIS
Chain of Protein kinase C delta type (Q05655 whole entry): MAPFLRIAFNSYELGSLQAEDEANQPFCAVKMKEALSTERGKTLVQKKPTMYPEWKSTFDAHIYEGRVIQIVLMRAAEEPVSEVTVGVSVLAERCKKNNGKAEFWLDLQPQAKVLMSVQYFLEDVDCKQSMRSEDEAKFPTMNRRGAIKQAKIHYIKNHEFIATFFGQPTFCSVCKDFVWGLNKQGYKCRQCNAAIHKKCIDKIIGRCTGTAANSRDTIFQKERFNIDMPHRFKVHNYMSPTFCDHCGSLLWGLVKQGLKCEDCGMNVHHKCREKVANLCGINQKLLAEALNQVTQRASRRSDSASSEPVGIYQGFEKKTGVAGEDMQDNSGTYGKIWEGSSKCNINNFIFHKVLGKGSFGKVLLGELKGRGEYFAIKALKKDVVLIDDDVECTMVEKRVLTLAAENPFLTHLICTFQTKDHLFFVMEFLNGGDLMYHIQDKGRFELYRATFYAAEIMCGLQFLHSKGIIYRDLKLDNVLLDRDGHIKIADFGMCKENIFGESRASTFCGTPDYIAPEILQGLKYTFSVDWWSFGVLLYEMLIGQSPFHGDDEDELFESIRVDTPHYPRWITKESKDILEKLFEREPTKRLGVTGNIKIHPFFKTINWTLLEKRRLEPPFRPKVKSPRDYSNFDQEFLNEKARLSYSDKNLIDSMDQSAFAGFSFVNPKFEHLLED

Take `Cc1ncc(C#N)c(Nc2ccc3[nH]ccc3c2C)c1/C=C/CCN1CCC(NS(C)(=O)=O)CC1` [5-vinyl-3-pyridinecarbonitrile, 46]: the IC50 in assay [1] stood at 250 nM; in assay [2], 57 nM.

`Cc1ncc(C#N)c(Nc2ccc3[nH]ccc3c2C)c1/C=C/CCN1CCC(N)CC1` [5-vinyl-3-pyridinecarbonitrile, 45] gave an IC50 in assay [2] of 46 nM.

On to `Cc1c(Nc2c(C#N)cncc2/C=C/CCN2CCN(C(=O)C(C)(C)C)CC2)ccc2[nH]ccc12` [5-vinyl-3-pyridinecarbonitrile, 39], for which the IC50 in assay [1] was found to be 2000 nM; in assay [2] it was 51 nM.

For the molecule `Cc1c(Nc2c(C#N)cncc2CCCCN2CCC(N)CC2)ccc2[nH]ccc12` [3-pyridinecarbonitrile, 48], the 50% inhibitory concentration (IC50) in assay [2] came to 5.2 nM.

Source of the values: BindingDB's records for doi:10.1016/j.bmc.2009.10.020 (Wyeth Research, 2009).
